According to patent publication US9801901B2, “Alginate oligomers for use in overcoming multidrug resistance in bacteria” (priority 2009, dated 2017):
≈ marks a conversion by molar mass, not a printed value. Read-outs that look alike come from different tables or passages of the source. Marks after values point to notes of the source that are not given here.

How the values were obtained:
[1] = tested on: Pseudomonas aeruginosa MDR 301 from Poland (V2); assay: MIC assay, CAMHB with alginate oligomer, no visible growth; format: cell-based; settings: Pseudomonas aeruginosa, Table 1, V2 MDR 301 PA, read-out: MIC
[2] = tested on: Klebsiella pneumoniae KP05 506 from India (V3); assay: as above; format: cell-based; settings: Klebsiella pneumoniae, Table 1, V3 KP05 506, read-out: MIC
[3] = tested on: Acinetobacter baumannii MDR ACB from Libya (V4); assay: as above; format: cell-based; settings: for effect in combination with alginate oligomers: Example 1, Acinetobacter baumannii isolate; for change of MIC in combination with azithromycin by alginate oligomer: Table 3, MDR Acinetobacter baumannii isolate
From the text: The study described in Example 1 was repeated with the following strains of bacteria and antibiotics as detailed in Tables 4, 5 and 6.
(§1) The study described in Example 1 was repeated with the following strains of Acinetobacter baumannii, antibiotics and M-block alginate oligomer in place of OligoG CF-5/20 as detailed in Table 7. The M-block oligomer is 100% M with a DPn of 15 to 18,

[4] = tested on: V9 (Egypt) Acinetobacter baumannii; assay: as above; format: cell-based; settings: Table 5, V9 MDR Acin. baum
[5] = tested on: V11 5702 (Wales) E. coli; assay: as above; format: cell-based; settings: Table 5, V11 MDR E.coli
[6] = tested on: V22 6056 Acinetobacter; assay: as above; format: cell-based, Acinetobacter lwoffii; settings: Table 5, V22 MDR Acin. lwoff
[7] = tested on: V23 1322 Burkholderia cepacia; assay: as above; format: cell-based
[8] = tested on: MDR Providencia stuartii; assay: MIC-assay, Mueller-Hinton broth with G-block alginate, 384-well, OD600 (Table 11); format: cell-based; settings: Providencia stuartii (IR57 India, V7) MDR
From the text: (§2) Minimum inhibitory concentration (MICs) of different antibiotics for strains of E. coli and Providencia stuartii displaying MDR phenotypes in the presence of varying concentrations of OligoCF-5/20 (0-10%). (MIC values are expressed in μg ml^−1).

[9] = tested on: strains of E. coli displaying MDR phenotypes; assay: as above; format: cell-based; settings: Escherichia coli, Escherichia coli (5702, Wales, V11) MDR, read-out: MIC
From the text: as §2

[10] = tested on: MDR Pseudomonas strains; assay: MIC assay of Example 1, summary over the MDR Pseudomonas strains; format: cell-based, Pseudomonas aeruginosa
[11] = tested on: V19 non MDR Acinetobacter baumannii; assay: MIC assay, CAMHB with M-block alginate oligomer, no visible growth; format: cell-based; settings: Table 7, V19 non MDR Acin. baum
From the text: as §1

[12] = Acinetobacter baumannii, Table 1, V4 ACB (Libya), OligoCF-5/20 0G, read-out: MIC
[13] = Acinetobacter baumannii, Table 1, V4 ACB (Libya), OligoCF-5/20 +10% G, read-out: MIC
[14] = Acinetobacter, OligoCF-5/20 0G, read-out: MIC
[15] = Burkholderia cepacia, Table 5, V23 MDR Burk cep, OligoCF-5/20 0G, read-out: MIC
[16] = Table 5, V23 MDR Burk cep, OligoCF-5/20 +2% G
[17] = Table 5, V23 MDR Burk cep, OligoCF-5/20 +6% G
[18] = Table 5, V23 MDR Burk cep, OligoCF-5/20 +10% G

In the case of CC(C)(O/N=C(\C(=O)N[C@@H]1C(=O)N2C(C(=O)[O-])=C(C[n+]3ccccc3)CS[C@H]12)c1csc(N)n1)C(=O)O [Ceftazidime], the MIC ([1]; OligoCF-5/20 0G) is reported as 32 µg/mL (≈ 58.5 µM), the MIC ([1]; OligoCF-5/20 +2% G) is reported as 16 µg/mL (≈ 29.3 µM) and the MIC ([1]; OligoCF-5/20 +6% G) is reported as 8 µg/mL (≈ 14.6 µM). For the same compound, the MIC ([1]; OligoCF-5/20 +10% G) was 4 µg/mL (≈ 7.32 µM), the MIC ([2]; OligoCF-5/20 0G) was greater than 1020 µg/mL and the MIC ([2]; OligoCF-5/20 +2% G) was greater than 1020 µg/mL. The MIC ([2]; OligoCF-5/20 +6% G) was greater than 1020 µg/mL, the MIC ([2]; OligoCF-5/20 +10% G) was greater than 1020 µg/mL and the MIC [3, 12] was 512 µg/mL (≈ 937 µM). The MIC [3, 13] was 256 µg/mL (≈ 468 µM), the “effect in combination with alginate oligomers” value [3] was “more positive effect” and the MIC ([3]; Table 1, V4 ACB (Libya), OligoCF-5/20 +6% G) was 512 µg/mL (≈ 937 µM). For the same compound, the “change of MIC in combination with azithromycin by alginate oligomer” value [3] was “reduced”, the MIC ([4]; Acinetobacter baumannii, OligoCF-5/20 0G, read-out: MIC) was greater than 512 µg/mL and the MIC ([4]; OligoCF-5/20 +2% G) was 512^† μg/ml. The MIC ([4]; OligoCF-5/20 +6% G) was 512^† μg/ml, the MIC ([4]; OligoCF-5/20 +10% G) was 256^† μg/ml and the MIC ([5]; Escherichia coli, OligoCF-5/20 0G, read-out: MIC) was 128 µg/mL (≈ 234 µM). For the same compound, the MIC ([5]; OligoCF-5/20 +2% G) was 64^† μg/ml, the MIC ([5]; OligoCF-5/20 +6% G) was 32^† μg/ml and the MIC ([5]; OligoCF-5/20 +10% G) was 64^† μg/ml. For the same compound, the MIC [6, 14] was 16 µg/mL (≈ 29.3 µM), the MIC ([6]; OligoCF-5/20 +2% G) was 16 µg/mL (≈ 29.3 µM) and the MIC ([6]; OligoCF-5/20 +6% G) was 4^† μg/ml. The MIC ([6]; OligoCF-5/20 +10% G) was 2^† μg/ml, the MIC [7, 15] was 64 µg/mL (≈ 117 µM) and the MIC ([7]; Burkholderia cepacia, Table 6, V23, Experiment 1 (18-03-10), OligoCF-5/20 0G, read-out: MIC) was 128 µg/mL (≈ 234 µM). The MIC ([7]; Burkholderia cepacia, Table 6, V23, Experiment 2 (18-03-10), OligoCF-5/20 0G, read-out: MIC) was 64 µg/mL (≈ 117 µM), the MIC ([7]; Burkholderia cepacia, Table 6, V23, Experiment 3 (19-03-10), OligoCF-5/20 0G, read-out: MIC) was 64 µg/mL (≈ 117 µM) and the MIC [7, 16] was 32^† μg/ml. The MIC [7, 17] was 8 µg/mL (≈ 14.6 µM), the MIC [7, 18] was <0.5^† μg/ml and the MIC ([7]; Table 6, V23, Experiment 1 (18-03-10), OligoCF-5/20 +2% G) was 64^† μg/ml. For the same compound, the MIC ([7]; Table 6, V23, Experiment 1 (18-03-10), OligoCF-5/20 +6% G) was 16^† μg/ml, the MIC ([7]; Table 6, V23, Experiment 1 (18-03-10), OligoCF-5/20 +10% G) was 8^† μg/ml and the MIC ([7]; Table 6, V23, Experiment 2 (18-03-10), OligoCF-5/20 +2% G) was 64 µg/mL (≈ 117 µM). For the same compound, the MIC ([7]; Table 6, V23, Experiment 2 (18-03-10), OligoCF-5/20 +6% G) was 32^† μg/ml, the MIC ([7]; Table 6, V23, Experiment 2 (18-03-10), OligoCF-5/20 +10% G) was 32^† μg/ml and the MIC ([7]; Table 6, V23, Experiment 3 (19-03-10), OligoCF-5/20 +2% G) was 32^† μg/ml. The MIC ([7]; Table 6, V23, Experiment 3 (19-03-10), OligoCF-5/20 +6% G) was 16^† μg/ml, the MIC ([7]; Table 6, V23, Experiment 3 (19-03-10), OligoCF-5/20 +10% G) was 4^† μg/ml and the MIC ([8]; G-block (OligoCF-5/20) 0%) was greater than 1020 µg/mL. It also gave an MIC ([8]; G-block (OligoCF-5/20) 2%) greater than 1020 µg/mL, an MIC ([8]; G-block (OligoCF-5/20) 6%) greater than 1020 µg/mL and an MIC ([8]; G-block (OligoCF-5/20) 10%) greater than 1020 µg/mL. For the same compound, the MIC ([9]; G-block (OligoCF-5/20) 0%) was greater than 16 µg/mL, the MIC ([9]; G-block (OligoCF-5/20) 2%) was greater than 16 µg/mL and the MIC ([9]; G-block (OligoCF-5/20) 6%) was greater than 16 µg/mL. The MIC ([9]; G-block (OligoCF-5/20) 10%) was greater than 16 µg/mL and the “effectiveness when used in combination with the alginate oligomers” value [10] was “more effective”.

In the case of O=C(O)c1cn(C2CC2)c2cc(N3CCNCC3)c(F)cc2c1=O [Ciprofloxacin], the MIC ([1]; OligoCF-5/20 0G) is reported as 16 µg/mL (≈ 48.3 µM), the MIC ([1]; OligoCF-5/20 +2% G) is reported as 16 µg/mL (≈ 48.3 µM) and the MIC ([1]; OligoCF-5/20 +6% G) is reported as 8 µg/mL (≈ 24.1 µM). For the same compound, the MIC ([1]; OligoCF-5/20 +10% G) was 8 µg/mL (≈ 24.1 µM), the MIC [3, 12] was 64 µg/mL (≈ 193 µM) and the MIC ([3]; Acinetobacter baumannii, Table 1, V4 ACB (Libya), OligoCF-5/20 +2% G, read-out: MIC) was 32 µg/mL (≈ 96.6 µM). The MIC ([3]; Acinetobacter baumannii, Table 1, V4 ACB (Libya), OligoCF-5/20 +6% G, read-out: MIC) was 16 µg/mL (≈ 48.3 µM), the MIC [3, 13] was 16 µg/mL (≈ 48.3 µM) and the MIC ([3]; Acinetobacter baumannii, Table 7, V4 MDR Acin baum (Libya), M-block oligomer 0M, read-out: MIC) was 64 µg/mL (≈ 193 µM). The MIC ([3]; Acinetobacter baumannii, Table 7, V4 MDR Acin baum (Libya), M-block oligomer +2% M, read-out: MIC) was 64 µg/mL (≈ 193 µM), the MIC ([3]; Acinetobacter baumannii, Table 7, V4 MDR Acin baum (Libya), M-block oligomer +6% M, read-out: MIC) was 64 µg/mL (≈ 193 µM) and the “effect in combination with alginate oligomers” value [3] was “more positive effect”. The “change of MIC in combination with azithromycin by alginate oligomer” value [3] was “reduced”, the MIC ([4]; OligoCF-5/20 0G) was -64^† μg/ml and the MIC ([4]; OligoCF-5/20 +2% G) was 32^† μg/ml. For the same compound, the MIC ([4]; OligoCF-5/20 +6% G) was 32^† μg/ml, the MIC ([4]; OligoCF-5/20 +10% G) was 32^† μg/ml and the MIC ([5]; OligoCF-5/20 +2% G) was 64^† μg/ml. The MIC [6, 14] was less than 0.25 µg/mL, the MIC [7, 15] was 64 µg/mL (≈ 193 µM) and the MIC [7, 16] was 64 µg/mL (≈ 193 µM). The MIC [7, 17] was 64 µg/mL (≈ 193 µM), the MIC [7, 18] was 32^† μg/ml and the MIC ([11]; M-block oligomer 0M) was 64 µg/mL (≈ 193 µM). For the same compound, the MIC ([11]; M-block oligomer +2% M) was 32 µg/mL (≈ 96.6 µM), the MIC ([11]; M-block oligomer +6% M) was 16 µg/mL (≈ 48.3 µM) and the MIC ([9]; G-block (OligoCF-5/20) 0%) was greater than 8 µg/mL. For the same compound, the MIC ([9]; G-block (OligoCF-5/20) 2%) was greater than 8 µg/mL, the MIC ([9]; G-block (OligoCF-5/20) 6%) was greater than 8 µg/mL and the MIC ([9]; G-block (OligoCF-5/20) 10%) was greater than 8 µg/mL. For the same compound, the “effectiveness when used in combination with the alginate oligomers” value [10] was “more effective”.
